From ChEMBL document CHEMBL2407010, “Nitric oxide donating anilinopyrimidines: synthesis and biological evaluation as EGFR inhibitors” (Eur J Med Chem, 2013)
Active and inactive are the calls of the source. The calls are words filed in the database; no cut-off is given here.

How the values were obtained:
[1] = biological target: T1, Epidermal growth factor receptor (Homo sapiens, UniProt P00533); test: Inhibition of EGFR phosphorylation in human NCI-H1975 cells at 0.01 to 1 uM after 6 hrs by Western blotting analysis; assay type: cell-based
T1 sequence (P00533 whole entry): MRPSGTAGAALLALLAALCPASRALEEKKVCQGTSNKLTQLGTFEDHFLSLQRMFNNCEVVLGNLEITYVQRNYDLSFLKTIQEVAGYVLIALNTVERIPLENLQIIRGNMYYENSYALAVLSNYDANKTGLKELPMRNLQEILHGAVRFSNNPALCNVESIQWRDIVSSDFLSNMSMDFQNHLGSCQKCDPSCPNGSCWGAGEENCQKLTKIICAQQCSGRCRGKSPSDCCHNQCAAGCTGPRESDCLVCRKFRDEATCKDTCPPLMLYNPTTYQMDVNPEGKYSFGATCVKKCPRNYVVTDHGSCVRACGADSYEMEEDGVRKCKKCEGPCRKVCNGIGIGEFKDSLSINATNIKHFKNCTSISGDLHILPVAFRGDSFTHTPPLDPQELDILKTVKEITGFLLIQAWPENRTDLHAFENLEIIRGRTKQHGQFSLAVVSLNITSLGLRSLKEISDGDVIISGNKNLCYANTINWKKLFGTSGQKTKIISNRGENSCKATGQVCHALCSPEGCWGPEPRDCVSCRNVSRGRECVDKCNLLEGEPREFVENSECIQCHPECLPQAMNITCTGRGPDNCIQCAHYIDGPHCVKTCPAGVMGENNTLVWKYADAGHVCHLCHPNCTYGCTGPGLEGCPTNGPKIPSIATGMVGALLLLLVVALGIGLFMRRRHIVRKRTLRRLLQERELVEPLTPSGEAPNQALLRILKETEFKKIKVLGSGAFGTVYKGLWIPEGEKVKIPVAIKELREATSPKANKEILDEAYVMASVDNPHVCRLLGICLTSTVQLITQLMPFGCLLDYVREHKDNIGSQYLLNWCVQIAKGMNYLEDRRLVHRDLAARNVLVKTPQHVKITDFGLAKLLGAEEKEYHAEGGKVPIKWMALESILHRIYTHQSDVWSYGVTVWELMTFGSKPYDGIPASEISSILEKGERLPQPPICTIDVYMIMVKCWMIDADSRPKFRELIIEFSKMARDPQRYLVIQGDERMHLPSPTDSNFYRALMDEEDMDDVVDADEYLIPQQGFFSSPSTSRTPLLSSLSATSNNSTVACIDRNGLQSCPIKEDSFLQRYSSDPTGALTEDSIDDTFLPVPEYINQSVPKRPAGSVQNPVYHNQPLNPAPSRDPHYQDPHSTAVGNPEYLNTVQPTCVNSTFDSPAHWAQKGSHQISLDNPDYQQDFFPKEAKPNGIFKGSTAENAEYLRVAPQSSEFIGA

[2] = biological target: T1, Epidermal growth factor receptor; test: Inhibition of EGFR phosphorylation in human NCI-H1975 cells assessed as reduction of phosphorylated Erk level at 1 uM after 6 hrs by Western blotting analysis; assay type: cell-based
[3] = biological target: T1, Epidermal growth factor receptor; test: Inhibition of EGFR phosphorylation in human NCI-H1975 cells assessed as reduction of phosphorylated Akt level at 1 uM after 6 hrs by Western blotting analysis; assay type: cell-based
[4] = Antiproliferative activity against human HCC827 cells expressing EGFR E746_A750 deletion mutant after 72 hrs by MTT assay; details: HCC827, 72 h
A-431 = test: Antiproliferative activity against human A431 cells expressing wild type EGFR after 72 hrs by MTT assay; details: A-431, 72 h
[5] = biological target: T1, Epidermal growth factor receptor; test: Inhibition of wild type EGFR (unknown origin) using Tyr 4 peptide as substrate after 1.5 hrs by FRET based Z'-lyte assay
[6] = biological target: Epidermal growth factor receptor (Homo sapiens, UniProt P00533, L858R); test: Inhibition of EGFR L858R mutant (unknown origin) using Tyr 4 peptide as substrate after 1.5 hrs by FRET based Z'-lyte assay; assay type: protein assay
Epidermal growth factor receptor (Homo sapiens, UniProt P00533, L858R), sequence (P00533 25-1210 L858R limits assumed): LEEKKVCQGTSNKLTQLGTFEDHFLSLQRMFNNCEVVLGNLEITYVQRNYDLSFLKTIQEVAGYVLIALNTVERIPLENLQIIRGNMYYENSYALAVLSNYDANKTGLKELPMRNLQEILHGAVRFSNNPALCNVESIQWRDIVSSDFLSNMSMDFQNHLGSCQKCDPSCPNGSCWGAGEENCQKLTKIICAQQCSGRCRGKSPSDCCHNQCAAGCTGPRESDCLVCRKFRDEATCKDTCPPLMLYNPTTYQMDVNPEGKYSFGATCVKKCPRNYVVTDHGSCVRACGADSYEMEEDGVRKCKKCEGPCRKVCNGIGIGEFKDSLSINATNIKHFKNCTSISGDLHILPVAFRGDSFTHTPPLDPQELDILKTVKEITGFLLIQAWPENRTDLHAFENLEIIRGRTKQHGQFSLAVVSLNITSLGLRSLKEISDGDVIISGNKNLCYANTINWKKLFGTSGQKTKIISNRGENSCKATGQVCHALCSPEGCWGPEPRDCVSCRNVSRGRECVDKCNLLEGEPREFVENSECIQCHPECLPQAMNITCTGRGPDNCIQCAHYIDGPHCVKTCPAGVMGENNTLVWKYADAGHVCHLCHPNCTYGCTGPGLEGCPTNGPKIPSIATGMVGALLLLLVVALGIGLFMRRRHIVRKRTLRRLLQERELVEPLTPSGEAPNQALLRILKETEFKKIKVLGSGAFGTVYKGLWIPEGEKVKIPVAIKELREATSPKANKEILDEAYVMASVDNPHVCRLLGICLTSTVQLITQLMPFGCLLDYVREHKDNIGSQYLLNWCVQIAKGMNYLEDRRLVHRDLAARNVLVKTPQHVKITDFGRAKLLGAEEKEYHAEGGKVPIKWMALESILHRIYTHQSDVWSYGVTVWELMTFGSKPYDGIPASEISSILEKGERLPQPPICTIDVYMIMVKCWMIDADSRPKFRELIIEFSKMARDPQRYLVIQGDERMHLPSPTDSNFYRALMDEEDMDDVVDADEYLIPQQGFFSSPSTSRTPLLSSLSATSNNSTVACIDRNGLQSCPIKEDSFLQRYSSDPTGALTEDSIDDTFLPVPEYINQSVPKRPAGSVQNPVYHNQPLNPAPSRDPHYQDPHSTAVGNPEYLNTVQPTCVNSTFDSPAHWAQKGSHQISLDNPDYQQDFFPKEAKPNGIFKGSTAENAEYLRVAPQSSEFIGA

[7] = biological target: Epidermal growth factor receptor (Homo sapiens, UniProt P00533, L858R/T790M); test: Inhibition of EGFR L858R/T790M mutant (unknown origin) using Tyr 4 peptide as substrate after 1.5 hrs by FRET based Z'-lyte assay; assay type: protein assay
Epidermal growth factor receptor (Homo sapiens, UniProt P00533, L858R/T790M), sequence (P00533 25-1210 T790M/L858R limits assumed): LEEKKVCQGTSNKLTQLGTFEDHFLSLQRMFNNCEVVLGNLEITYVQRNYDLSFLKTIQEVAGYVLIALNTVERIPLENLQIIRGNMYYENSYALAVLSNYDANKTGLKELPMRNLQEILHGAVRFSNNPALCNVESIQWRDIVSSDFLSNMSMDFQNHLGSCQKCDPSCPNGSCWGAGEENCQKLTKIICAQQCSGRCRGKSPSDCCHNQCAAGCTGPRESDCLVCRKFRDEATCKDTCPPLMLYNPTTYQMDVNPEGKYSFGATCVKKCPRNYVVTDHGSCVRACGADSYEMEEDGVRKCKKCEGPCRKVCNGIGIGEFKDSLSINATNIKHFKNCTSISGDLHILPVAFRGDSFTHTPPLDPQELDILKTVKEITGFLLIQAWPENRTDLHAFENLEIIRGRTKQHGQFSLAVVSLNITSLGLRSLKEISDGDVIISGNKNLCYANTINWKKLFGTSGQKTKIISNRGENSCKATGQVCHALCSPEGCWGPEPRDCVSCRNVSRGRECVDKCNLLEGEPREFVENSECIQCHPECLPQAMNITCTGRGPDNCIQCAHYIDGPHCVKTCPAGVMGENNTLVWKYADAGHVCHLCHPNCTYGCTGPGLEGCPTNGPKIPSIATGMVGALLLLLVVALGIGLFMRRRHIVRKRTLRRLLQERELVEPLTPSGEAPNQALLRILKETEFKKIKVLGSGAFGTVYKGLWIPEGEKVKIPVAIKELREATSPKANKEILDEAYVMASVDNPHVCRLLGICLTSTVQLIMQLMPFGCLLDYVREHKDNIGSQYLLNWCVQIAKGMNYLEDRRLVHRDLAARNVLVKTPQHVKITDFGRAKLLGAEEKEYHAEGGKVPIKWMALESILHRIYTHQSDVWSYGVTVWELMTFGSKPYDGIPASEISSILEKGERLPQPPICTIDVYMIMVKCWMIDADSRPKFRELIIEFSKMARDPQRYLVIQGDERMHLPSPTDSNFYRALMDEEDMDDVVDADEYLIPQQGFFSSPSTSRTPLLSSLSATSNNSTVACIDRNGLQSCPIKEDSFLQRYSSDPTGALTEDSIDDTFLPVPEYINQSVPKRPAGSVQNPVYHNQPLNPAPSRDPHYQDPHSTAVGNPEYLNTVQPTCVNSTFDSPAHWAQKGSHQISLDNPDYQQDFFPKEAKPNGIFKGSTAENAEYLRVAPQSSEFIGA

NCI-H1975 [8] = test: Antiproliferative activity against human NCI-H1975 cells expressing EGFR L858R/T790M mutant after 72 hrs by MTT assay; details: NCI-H1975, 72 h
[9] = Antiproliferative activity against human 16HBE cells expressing wild type EGFR after 72 hrs by MTT assay; details: 16HBE14o-
A549 = test: Antiproliferative activity against wild type EGFR/k-Ras dependent human A549 cells after 72 hrs by MTT assay; details: A549, 72 h
16HBE14o- = test: Induction of nitric oxide production in human 16HBE cells expressing wild type EGFR at 100 uM after 72 hrs by Griess assay; assay type: functional, cell-based
NCI-H1975 [10] = test: Antiproliferative activity against human NCI-H1975 cells expressing EGFR L858R/T790M mutant at 1 to 20 uM after 24 hrs by MTT assay in presence of hemoglobin; assay type: functional, cell-based
NCI-H1975 [11] = test: Induction of nitric oxide production in human NCI-H1975 cells expressing EGFR L858R/T790M mutant at 100 uM after 72 hrs by Griess assay; assay type: functional, cell-based
NCI-H1975 [12] = test: Ratio of IC50 for human NCI-H1975 cells expressing EGFR L858R/T790M mutant to IC50 for human 16HBE cells
[13] = biological target: T1, Epidermal growth factor receptor; test: Inhibition of EGFR phosphorylation in human NCI-H1975 cells after 6 hrs by Western blotting analysis; assay type: cell-based
[14] = Ratio of IC50 for human HCC827 cells expressing EGFR E746_A750 deletion mutant to IC50 for human 16HBE cells

SMILES | inhibition [1] | inhibition [2] | inhibition [3] | IC50 (A-431) [nM] | IC50 [5] [nM] | IC50 [6] [nM] | IC50 [7] [nM] | IC50 (NCI-H1975 [8]) [nM] | IC50 (A549) [nM] | inhibition [13] | IC50 [4] [nM] | IC50 [9] [nM] | Activity (16HBE14o-) | Activity (NCI-H1975 [10]) | Activity (NCI-H1975 [11]) | Ratio IC50 (NCI-H1975 [12]) | Ratio IC50 [14]
COc1cc(N2CCN(C)CC2)ccc1Nc1ncc(Cl)c(Oc2ccc(COc3no[n+]([O-])c3S(=O)(=O)c3ccccc3)cc2)n1 |  |  |  | 2200 | 1090 | 1530 | 140 | 221 | 3660 |  | 863 | 2300 |  |  |  |  | 
C=CC(=O)N1CCN(c2ccc(Nc3ncc(Cl)c(Oc4cccc(COc5no[n+]([O-])c5S(=O)(=O)c5ccccc5)c4)n3)c(OC)c2)CC1 | Active | Active | Active | 348 | 350 | 370 | 45 | 55 | 1720 | Dose-dependent effect | 22 | 1930 | Active | Active | Active | 35 | 35
C=CC(=O)N1CCN(c2ccc(Nc3ncc(Cl)c(Oc4ccc(COc5no[n+]([O-])c5S(=O)(=O)c5ccccc5)cc4)n3)c(OC)c2)CC1 |  |  |  | 4660 | > 10000 | > 10000 | 410 | 154 | 3900 |  | 4900 | 3370 |  |  |  |  | 
COc1cc2ncnc(Nc3ccc(F)c(Cl)c3)c2cc1OCCCN1CCOCC1 |  |  |  |  |  |  |  |  |  |  |  |  | Active |  | Active |  | 
COc1cc(N2CCN(C)CC2)ccc1Nc1ncc(Cl)c(Oc2ccc(CCOc3no[n+]([O-])c3S(=O)(=O)c3ccccc3)cc2)n1 |  |  |  | 479 | 2940 | 5360 | 960 | 372 | 3750 |  | 1930 | 2420 |  |  | Active |  | 

Further lines, with some results ahead:

inhibition [1] | inhibition [2] | inhibition [3] | IC50 (A-431) [nM] | IC50 [5] [nM] | IC50 [6] [nM] | IC50 [7] [nM] | IC50 (NCI-H1975 [8]) [nM] | IC50 (A549) [nM] | inhibition [13] | SMILES | IC50 [4] [nM] | IC50 [9] [nM] | Activity (16HBE14o-) | Activity (NCI-H1975 [10]) | Activity (NCI-H1975 [11]) | Ratio IC50 (NCI-H1975 [12]) | Ratio IC50 [14]
Active | Active | Active |  |  |  |  |  |  |  | C=CC(=O)Nc1cccc(Oc2nc(Nc3ccc(N4CCN(C)CC4)cc3OC)ncc2Cl)c1 |  |  |  |  |  |  | 
 |  |  | 1200 | 240 | 490 | 68 | 68 | 3900 |  | COc1cc(N2CCC(O)CC2)ccc1Nc1ncc(Cl)c(Oc2cccc(COc3no[n+]([O-])c3S(=O)(=O)c3ccccc3)c2)n1 | 36 | 3250 | Active |  | Active | 35 | 35
 |  |  | 1360 | 130 | 150 | 19 | 52 | 4190 |  | COc1cc(N2CCN(C)CC2)ccc1Nc1ncc(Cl)c(Oc2cccc(COc3no[n+]([O-])c3S(=O)(=O)c3ccccc3)c2)n1 | 63 | 2210 |  |  |  | 35 | 35
 |  |  | 357 | 3150 | 3220 | 250 | 148 | 4250 |  | COc1cc(N2CCC(O)CC2)ccc1Nc1ncc(Cl)c(Oc2ccc(COc3no[n+]([O-])c3S(=O)(=O)c3ccccc3)cc2)n1 | 95 | 2190 |  |  |  |  | 
 |  |  | 551 | 2280 | > 10000 | 780 | 315 | 2840 |  | COc1cc(N2CCN(C)CC2)ccc1Nc1ncc(Cl)c(Oc2ccc(CCCOc3no[n+]([O-])c3S(=O)(=O)c3ccccc3)cc2)n1 | 4820 | 3520 |  |  | Active |  | 
